Assay results from paper PMC11855478, “Bicyclic N,S-Acetals Containing Fused Cysteine-Amide System as New Heterocyclic Class Targeting Human Farnesyltransferase (FTase-h)” (International Journal of Molecular Sciences, 2025).
pIC50: −log10 of the molar value. Read-outs that look alike come from different tables or passages of the source.

Tests used:
[1] = target: human farnesyltransferase (FTase) (Homo sapiens, UniProt P49354+P49356); assay: FTase inhibitory assay (fluorescence, Dansyl-GCVLS); assay type: biochemical; settings: for % FTI: inhibition of human FTase at 100 μM of tested compound, mean of two experiments; for pIC50: human FTase in vitro
Experimental: With 40 new products in hand, the determination of their inhibitory activity on human farnesyl-transferase (FTase) in vitro was first undertaken. Dimethyl sulfoxide (DMSO) was used as the negative control, and Chaetomellic acid A was the positive reference in all assays. At the outset, and in order to select only significant results, products with an inhibitory power greater than 60% at an initial screening concentration of 100 µM were retained for the determination of their IC50 and, therefore, for further discussion. Moreover, given the number of products tested, they are grouped into three subfamilies on the basis of the degree of the sulphur atom oxidation (series of sulfides, series of sulfoxides, and series of sulfones), and the results obtained are grouped in Table 1, Table 2 and Table 3.
3.3. FTase Inhibitory Assay
Assays were realized in 96-well plates, prepared with a Biomek NKMC and a Biomek 3000 from Beckman Coulter, and read on a Wallac Victor fluorimeter from PerkinElmer. Per well, 20 µL of farnesyl pyrophosphate (10 μM) was added to 180 µL of a solution containing 2 µL of varied concentrations of potential inhibitors (dissolved in DMSO) and 178 μL of a solution composed of 10 μL of partially purified recombinant human FTase (15 µg mL^−1) and 1.0 µL of Dansyl-GCVLS peptide (in the following buffer: 5.6 mM DTT, 5.6 mM MgCl2, 12 μM ZnCl2 and 0.2% (w/v) octyl-β-D-glucopyranoside, 52 mM Tris/HCl, pH 7.5). Fluorescence was recorded for 15 min (0.7 s per well, 20 repeats) at 30 °C with an excitation filter at 340 nm and an emission filter of 486 nm. Each measurement was reproduced twice, in duplicate. The kinetic experiments were realized under the same conditions, either with FPP as varied substrate with a constant concentration of Dns-GCVLS of 2.5 μM or with Dns-GCVLS as varied substrate with a constant concentration of FPP of 10 μM. Non-linear regressions were performed using the Excel software.

FTase = settings: Figure 1, cited from earlier work

SMILES	% FTI [1] [%]	other results
CC12c3ccccc3C(=O)N1C(C(=O)NCc1ccccc1)C[S+]2[O-] (centres unmarked) [5bA]	30	
C[C@]12c3ccccc3C(=O)N1[C@H](C(=O)NCc1cccc(C(F)(F)F)c1)C[S+]2[O-] (some centres unmarked) [5bD]	43	
COc1cccc(CNC(=O)[C@@H]2C[S+]([O-])[C@@]3(C)c4ccccc4C(=O)N23)c1 (some centres unmarked) [5bE]	62	
COc1ccc(CNC(=O)[C@@H]2C[S+]([O-])[C@@]3(C)c4ccccc4C(=O)N23)cc1 (some centres unmarked) [5bF]	68	
COc1ccccc1CNC(=O)[C@@H]1C[S+]([O-])[C@@]2(C)c3ccccc3C(=O)N12 (some centres unmarked) [5bG]	87	pIC50 [1]: 8.39
C[C@]12c3ccccc3C(=O)N1[C@H](C(=O)NCc1ccc(Cl)cc1Cl)C[S+]2[O-] (some centres unmarked) [5bH]	31	
COc1ccc(CNC(=O)[C@@H]2C[S+]([O-])[C@@]3(C)c4ccccc4C(=O)N23)cc1OC (some centres unmarked) [5bI]	0	FTase inhibitory activity (in words) [1]: complete loss of inhibitory activity
O=C(NCc1ccccc1)[C@@H]1CS(=O)(=O)[C@H]2c3ccccc3C(=O)N12 [7aA]	20	
O=C(NCc1cccc(C(F)(F)F)c1)[C@@H]1CS(=O)(=O)[C@H]2c3ccccc3C(=O)N12 [7aD]	28	
COc1cccc(CNC(=O)[C@@H]2CS(=O)(=O)[C@H]3c4ccccc4C(=O)N23)c1 [7aE]	42	
COc1ccc(CNC(=O)[C@@H]2CS(=O)(=O)[C@H]3c4ccccc4C(=O)N23)cc1 [7aF]	34	
COc1ccccc1CNC(=O)[C@@H]1CS(=O)(=O)[C@H]2c3ccccc3C(=O)N12 [7aG]	47	
COc1ccc(CNC(=O)C2CS(=O)(=O)C3c4ccccc4C(=O)N23)cc1OC (centres unmarked) [7aI]	53	
C[C@]12c3ccccc3C(=O)N1[C@H](C(=O)NCc1ccccc1)CS2(=O)=O [7bA]	41	
C[C@]12c3ccccc3C(=O)N1[C@H](C(=O)NCc1cccc(C(F)(F)F)c1)CS2(=O)=O [7bD]	32	
COc1cccc(CNC(=O)[C@@H]2CS(=O)(=O)[C@@]3(C)c4ccccc4C(=O)N23)c1 [7bE]	53	
COc1ccc(CNC(=O)[C@@H]2CS(=O)(=O)[C@@]3(C)c4ccccc4C(=O)N23)cc1 [7bF]	44	
COc1ccccc1CNC(=O)[C@@H]1CS(=O)(=O)[C@@]2(C)c3ccccc3C(=O)N12 [7bG]	74	pIC50 [1]: 7.17
C[C@]12c3ccccc3C(=O)N1[C@H](C(=O)NCc1ccc(Cl)cc1Cl)CS2(=O)=O [7bH]	76	FTase inhibitory activity (in words) [1]: false positive
COc1ccc(CNC(=O)[C@@H]2CS(=O)(=O)[C@@]3(C)c4ccccc4C(=O)N23)cc1OC [7bI]	13	
COC1=C(OC)[C@H](O)[C@H](C/C=C(\C)CC/C=C(\C)CCC=C(C)C)[C@@H](C)C1=O [Antroquinonol]		pIC50 (FTase; known FTIs): 5.52
CS(=O)(=O)CC[C@H](NC(=O)c1cccc(CNC(=O)[C@@H](N)CS)c1)C(=O)O [C-AMBA-M]		pIC50 (FTase; known FTIs): 7.22
CN1C(=O)[C@]23CC4=CC=C[C@H](O)[C@H]4N2C(=O)[C@@]1(CO)SS3 [Gliotoxin]		pIC50 (FTase; known FTI): 4.10; pIC50 (FTase; known FTIs): 7.10
CCCC[C@@H](C)/C=C(C)/C=C(\C)C(=O)NC1=C[C@@](O)(/C=C/C=C/C=C/C(=O)NC2=C(O)CCC2=O)[C@@H]2O[C@@H]2C1=O [Manumycin-A]		pIC50 (FTase; known FTIs): 7.52
CCCCCCCCCCCCCC/C(C(=O)O)=C(\C)C(=O)O [Ref., Chaetomellic acid A, reference compound]	100	pIC50 [1]: 6.74
Cn1cncc1[C@@](N)(c1ccc(Cl)cc1)c1ccc2c(c1)c(-c1cccc(Cl)c1)cc(=O)n2C [Tipifarnib (R115777), Tipifarnib]		pIC50 (FTase; known FTIs): 8.10
